Patent US5449773A, “Platinum complexes of sucrose derivatives” (priority 1995, dated 1995)
Entries after “also recorded” stand apart in the source; their conditions may differ. Like-named read-outs stand apart in the source and are kept apart here.

Legend:
[1] = cells; cited from earlier work
E. coli = settings: cited from earlier work
human KB cell cultures [2] = experiment: Cytotoxicity test on human KB cell cultures (Examples 8 and 9); settings: cells continuously cultured with the complex
Protocol: (§1) The cytotoxicity of diaminosucrose platinum complexes was evaluated on human KB cell cultures as follows:
(§2) Graded doses of the respective diaminosucrose platinum (II) complexes tested contained in 0.1 ml of MEM medium were added to tube cultures of KB cells (contained in 1 ml of MEM medium with 4% fetal calf serum) immediately after seeding of ca. 2×10,000 cells/mi.
(§3) The incubated cultures were seeded every 3 days by 3 times dilution with the particular complex tested to maintain exponential cell growth.
(§4) After incubation the relative cytotoxic activity of the various platinum complexes was evaluated as follows:
(§5) Treated and untreated (control) tumor cell lines were viewed under the microscope and the number of dead cells quantified by visual means. Zero activity means that 100% of the treated cells survived, i.e., like the control.

Lewis lung carcinoma [3] = experiment: Effect on intraperitoneally implanted Lewis lung carcinoma in mice (Examples 10 and 12);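 further: C57BL/6 mice bearing Lewis lung tumor cells implanted intraperitoneally, treated intraperitoneally in distilled water starting day 1 after implantation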
Protocol: Young adult syngeneic C57BL/6 mice (ca. 17-19 grams) were implanted intraperitoneally with 3-5×10^5 Lewis Lung tumor cells. The respective diaminosucrose platinum (II) compounds were then administered intraperitoneally in distilled water commencing the first day after tumor implantation.
Lewis Lung tumor cells (3-5×10^5) were inoculated intraperitoneally (i.p.) into young adult syngeneic C57BL/6 mice (ca. 17-19g body weight). Administration of the platinum complexes (contained in 0.1 ml of distilled water) was started on day 1 after tumor implantation.

human KB cell cultures [4] = system: human KB cell cultures
Protocol: as §1, §2, §3, §4, §5

human KB cell cultures [5] = experiment: Cytotoxicity test of sucrose mono-, bis- and tris(platinum) complexes on human KB cell cultures (Example 11); format: cell-based; settings: 10 μg/ml
Protocol: Cultures were seeded after 3 days by 3 times dilution with the platinum complex in order to maintain exponential growth.
The platinum complexes tested were cis-platin, a mono(platinum) complex of 6,6'-diamino-6,6'-dideoxy-1',2,3,3',4,4'-hexa-O-methylsucrose, a bis(platinum) complex of 6,6'-diamino-6,6'-dideoxy-1',2-anhydrosucrose and a tris(platinum) complex of 1',6,6' -triamino-1',6,6'-trideoxy-2,3,3',4,4'-penta-O-methylsucrose.

Lewis lung carcinoma [6] = experiment: Effect of dose of sucrose bis(platinum) complex on intraperitoneally implanted Lewis lung carcinoma in mice (Example 13); format: in vivo
Protocol: The effect of dosage of the sucrose bis(platinum) complex on intraperitoneally implanted Lewis lung carcinoma cells was evaluated in mice. […] Administration of the complex (in 0.1 ml of distilled water) was effected on day 2 and day 4 after implantation.

P388 leukemia [7] = experiment: Effect of dose of sucrose bis(platinum) complex on P388 leukemia in syngeneic DBA/2 mice (Example 14); format: in vivo; settings: for Changes of body weight day 1 to 2 / Increase in life span / Mean survival time: day 1
Protocol: The effect of dose of sucrose bis(platinum complex on P388 leukemia cells in syngeneic DBA/2 mice was evaluated. A 0.1 ml of 10× dilution of P388 ascites (ca. 10^6 cells) was injected intraperitoneally (i.p.) into syngeneic DBA/2 mice (ca. 20 g body weight). The i.p. administration was effected on day 1 only. The bis(platinum) complex (1.0 mg/0.1 ml distilled water) had been stored for 77 days at 4° C. before administration.

P388 leukemia [8] = experiment: Effect of sucrose bis(platinum) complex on P388 leukemia in syngeneic DBA/2 mice (Example 15); format: in vivo
Description: The effect of the sucrose bis(platinum) complex on P388 leukemia cells in syngeneic DBA/2 mice was further evaluated.

[9] = Solubility of sucrose platinum complexes; format: physicochemical; settings: water, limits the dose
[10] = 2 mg×2 i.p., listed as sucrose bis(platinum) complex
[11] = 0.5 mg/mouse i.p., day 1, 2, 3, 6

SMILES: N.N.[Cl][Pt][Cl] [Sample No. 1, Cis-dichlorodiamine platinum]
- saturability and inhibition of accumulation (in words) [1]: accumulation is not saturable up to 3 mM cisplatin and cannot be inhibited with structural analogs
- prevention of DNA replication (in words) (E. coli; listed as cisplatin): have the ability to prevent DNA replication in E. coli

SMILES: COCC1(OC2OC(CN)C(OC)C(OC)C2OC)OC(CN)C(OC)C1OC.[Cl][Pt][Cl] (stereo not drawn) [Sample No. 2, N-N'-(cis-dichloroplatinato)-6,6'-diamino-6,6'-dideoxy-1',2,3,3',4,4'-hexa-O-methylsucrose]
- minimum cytotoxic concentration (human KB cell cultures [2]): 125 µg/mL
- Changes of body weight day 1 to 7 (Lewis lung carcinoma [3]; 2 mg/mouse i.p., day 1, 3): +2.0 g
- Increase in life span (Lewis lung carcinoma [3]; 2 mg/mouse i.p., day 1, 3): -1%
- Mean survival days (Lewis lung carcinoma [3]; 2 mg/mouse i.p., day 1, 3): 13.8 days
- No. of mice survival/total (Lewis lung carcinoma [3]; 2 mg/mouse i.p., day 1, 3): 0/5
- antitumor activity (in words) (Lewis lung carcinoma [3]; 2 mg×2 i.p.): no antitumor activity
- toxicity to the host / body weight (in words) (Lewis lung carcinoma [3]; 2 mg×2 i.p., listed as sucrose mono(platinum) complex): no antitumor activity nor toxicity to the host

SMILES: COCC1(OC2OC(CN)C(OC)C(OC)C2OC)OC(CN)C(OC)C1OC.O=C1[O][Pt][O]C(=O)C12CC2 (stereo not drawn) [Sample No. 5, N,N'-(cis-[1,1-cyclopropanedicarboxylato-platinato)]-6,6'-diamino-6,6'-dideoxy-1',2,3,3',4,4'-hexa-O-methylsucrose]
- cytotoxicity (in words) (human KB cell cultures [4]): not very toxic

SMILES: N.N.NCC1OC2OC3(COC2C(O)C1O)OC(CN)C(O)C3O.[Cl][Pt][Cl].[Cl][Pt][Cl] (stereo not drawn) [Sample No. 6, N,N'-bis[cis-amminedichloroplatinato]-6,6'-diamino-6,6'-dideoxy-1',2-anhydrosucrose]
- Cytotoxicity (human KB cell cultures [5]; 11.2 nM, 14 days incubation): 3+ (66% of the treated cells appear to be dead)
- Changes of body weight day 1 to 7 (Lewis lung carcinoma [6]; 0.1 mg/mouse i.p., day 2, 4): +2.0 g
- Increase in life span (Lewis lung carcinoma [6]; 0.1 mg/mouse i.p., day 2, 4): > 135%
- Mean survival time (Lewis lung carcinoma [6]; 0.1 mg/mouse i.p., day 2, 4): > 48.8
- antitumor activity (in words) (Lewis lung carcinoma [6]; 0.1 mg×2 i.p.): significant antitumor activity
- tumor-free survival (in words) (Lewis lung carcinoma [6]; 0.1 mg×2 i.p., observation to day 50): Three mice survived healthy and tumor-free up to the end of the observation period (day 50)
- antitumor activity (in words) (P388 leukemia [7]; 0.1 mg i.p.): no antitumor activity
- Changes of body weight day 1 to 2 (P388 leukemia [7]; 0.1 mg/mouse i.p.): -0.2 g
- Increase in life span (P388 leukemia [7]; 0.1 mg/mouse i.p.): 16%
- Mean survival time (P388 leukemia [7]; 0.1 mg/mouse i.p.): > 8.8
- antitumor activity (in words) (P388 leukemia [7]; 2 mg / high doses, i.p., listed as sucrose bis(platinum) complex): significant antitumor activity; also recorded: definite antitumor activity
- Changes of body weight day 1 to 2 (P388 leukemia [7]; 2 mg/mouse i.p.): -1.5 g
- Increase in life span (P388 leukemia [7]; 2 mg/mouse i.p.): > 111%
- Mean survival time (P388 leukemia [7]; 2 mg/mouse i.p.): > 16.0
- activity against P388 leukemia compared with cisplatin (in words) (P388 leukemia [7]; high doses): comparable to that of cisplatin against P388 leukemia
- systemic toxicity (in words) (P388 leukemia [7]; high doses): still not toxic systemically
- Changes of body weight day 1 to 2 (P388 leukemia [8]; 1.0 mg/mouse i.p., day 1): -1.0 g
- Increase in life span (P388 leukemia [8]; 1.0 mg/mouse i.p., day 1): > 89%
- Mean survival time (P388 leukemia [8]; 1.0 mg/mouse i.p., day 1): > 16.6
- prolongation of survival time over the controls (P388 leukemia [8]; dose of 1.0): 84%
- antitumor activity / cure (in words) (P388 leukemia [8]; dose of 1.0, listed as sucrose bis(platinum) complex): significant antitumor activity; also recorded: one mouse appearing cured
- minimum cytotoxic concentration (human KB cell cultures [2]): 10 µg/mL
- Changes of body weight day 1 to 7 (Lewis lung carcinoma [3]; 2 mg/mouse i.p., day 1, 3): -3.0 g
- Increase in life span (Lewis lung carcinoma [3]; 2 mg/mouse i.p., day 1, 3): > 210%
- Mean survival days (Lewis lung carcinoma [3]; 2 mg/mouse i.p., day 1, 3): > 43.4 days
- No. of mice survival/total (Lewis lung carcinoma [3]; 2 mg/mouse i.p., day 1, 3): 3/5
- antitumor activity (in words) (Lewis lung carcinoma [3]; 2 mg×2 i.p.): substantial antitumor activity
- recovery, survival and tumor-free outcome (in words) (Lewis lung carcinoma [3]; 2 mg×2 i.p.): All of the mice treated, however, recovered the loss of body weight and were tumor-free by day 30
- toxicity to the host / body weight (in words) (Lewis lung carcinoma [3]; 2 mg×2 i.p.): significant reduction of body weight
- antitumor activity (in words) (Lewis lung carcinoma [3]; [10]): remarkable antitumor activity
- recovery, survival and tumor-free outcome (in words) (Lewis lung carcinoma [3]; [10]): All the mice treated gradually recovered from the toxicity; however, 2 mice died of tumor growth on days 32 and 35. Three mice survived healthy and tumor-free up to the end of the observation period (day 50)
- maximum tolerable dose (Lewis lung carcinoma [3]; i.p., per mouse, judged from body weight loss): ~2 mg×2

SMILES: COC1C(CN)OC(OC2(CN)OC(CN)C(OC)C2OC)C(OC)C1OC.[NH2][Pt]([Cl])[Cl].[NH2][Pt]([Cl])[Cl].[NH2][Pt]([Cl])[Cl] (stereo not drawn) [Sample No. 7, N,N',N"-tris[cis-amminedichloroplatinato]-1'6,6'-triamino-1',6,6'-trideoxy-2,3,3',4,4'-penta-O-methylsucrose]
- Cytotoxicity (human KB cell cultures [5]; 7.9 nM, 10 days incubation): 3+ (66% of the treated cells appear to be dead)
- aqueous solubility (in words) [9]: Larger dosages were not possible because of the solubility constraints
- aqueous solubility (in words) ([9]; listed as sucrose tris(platinum) complex): limited solubility
- minimum cytotoxic concentration (human KB cell cultures [2]): 10 µg/mL
- Changes of body weight day 1 to 7 (Lewis lung carcinoma [3]; [11]): -0.8 g
- Increase in life span (Lewis lung carcinoma [3]; [11]): > 255%
- Mean survival days (Lewis lung carcinoma [3]; [11]): > 39.8 days
- No. of mice survival/total (Lewis lung carcinoma [3]; [11]): 3/5
- antitumor activity (in words) (Lewis lung carcinoma [3]; 0.5 mg×4 i.p.): remarkable antitumor activity
- reduction of body weight (in words) (Lewis lung carcinoma [3]; 0.5 mg×4 i.p.): moderate reduction of body weight
- survival and tumor-free outcome (in words) (Lewis lung carcinoma [3]; 0.5 mg×4 i.p., observation to day 50): Two mice died of tumor growth on day 22 and day 27. Three mice survived tumor-free until the end of the observation period (day 50)
- reduction of body weight (in words) (Lewis lung carcinoma [3]; 0.5 mg×4 i.p., listed as sucrose tris(platinum) complex): moderate .reduction in body weight

SMILES: NCCN.O=C1[O][Pt][O]C(=O)C12CC2 [Sample No. 9, cis-(ethylenediamino-N,N')-1,1-cyclopropanedicarboxylatoplatinum]
- cytotoxicity (in words) (human KB cell cultures [4]): more toxic than Sample No. 10 or Sample No. 6

SMILES: NC1C(O)OC(CO)C(O)C1O.[NH2][Pt]([Cl])[Cl] (centres unmarked) [Sample No. 11, N-(amminedichloroplatinato)-2-aminoglucose]
- cytotoxicity (in words) (human KB cell cultures [4]): appears not to exhibit toxicity immediately but rather exhibits a delayed toxic response which occurs gradually during the incubation period

SMILES: N.N.[Cl-].[Cl-].[OH-].[OH-].[Pt+4] [cis, cis-diamine-dichloro-trans-dihydroxoplatinum (IV)]
- prevention of DNA replication (in words) (E. coli): have the ability to prevent DNA replication in E. coli

SMILES: N.N.[Cl][Pt]([Cl])([Cl])[Cl] [cis-cis-trans-diaminetetrachloroplatinum (IV)]
- prevention of DNA replication (in words) (E. coli): have the ability to prevent DNA replication in E. coli

SMILES: N.N.[Cl][Pt][Cl] [transplatin, trans-diamine-dichloroplatinum (II)]
- prevention of DNA replication (in words) (E. coli): does not comprise this activity
